Laboratory results: PMC7211195 (Investigational New Drugs, 2019)
Read-outs that look alike come from different tables or passages of the source.

Assay: Lapatinib pharmacokinetics and uptake in rat brain tissue (BT);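 as to BT corr (BT homogenate corrected), single rat: brain concentration corrected for residual brain blood by the Fridén method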;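 as to BT corr (BT homogenate), single rat: brain concentration corrected for residual brain blood by the Fridén method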
Format: in vivo, rats
Details: male, Wistar, rat; for AUC(0-inf) / AUC(0-t) / Cmax / Tmax / k el: brain tissue
Procedure: This study was conducted on rats, which are a promising model to predict P-gp-based drug-drug interactions at the human BBB [15]. The animals were allowed to acclimate for one week before the beginning of the experiments. Adult male Wistar-strain rats (weight 470–525 g) were used in the study. The animals were maintained under standard breeding conditions with a 12/12 h light-dark cycle (lights on at 6.00 a.m., lights off at 6.00 p.m.) at constant room temperature (23 ± 2 °C), relative humidity (55 ± 10%) and ad libitum access to food and water. The experimental protocol for this study was reviewed and approved by the Local Ethics Committee. To obtain consistent data, the study was based on the required minimum number of animals and observation time. […] Three rats were used at each time point (n = 3). In total, the research was conducted on 66 animals (n = 33 in the experimental group and n = 33 in the control group).
Elacridar was freshly dissolved in a vehicle at an initial concentration of 20 mg/mL. […] A volume of 80 μL of blood was collected from each rat by cutting off a piece of its tail. The blood samples were collected into heparinized test tubes at the following time points: […], and they were immediately centrifuged at 2880 g for 10 min at 4 °C. The anaesthetized rats (anaesthetized by intramuscular administration of 50 mg/kg ketamine and 10 mg/kg xylazine) were prepared for cisterna magna puncture. The hair over the puncture was removed and the skin was disinfected with alcohol. The animals were placed in a recumbent position with an elevated rear part of the body. The animals’ heads were slightly flexed and immobilized with the operator’s left hand. The space between the occiput rostrally and the atlas (C1) of the spinal column caudally was gently palpated with the left thumb. A 0.7 × 20 G needle with polyethylene tubing (Terumo Poland, Warsaw, Poland) was gently inserted at an approximate angle of 80–90° through the skin with the operator’s right hand into the midsagittal region. The moment that dura mater perforation was perceptible, a small amount of CSF was found in the needle tubing. To sample additional CSF, a 1 mL insulin syringe (Becton Dickinson, Warsaw, Poland) was used to collect 80–120 μL of CSF by very gentle aspiration. Only clear CSF was collected for further analysis. […] The animals’ brains were immediately dissected, washed in 0.9% NaCl and divided along the longitudinal axis. One of the brain hemispheres was again rinsed three times with 5 mL of 0.9% NaCl, weighed and homogenized with 0.9% NaCl (4 mL per 1 g of BT) in an Ultra-Turrax homogenizer (Witko, Łódź, Poland). The homogenate was then centrifuged at 4500 g for 10 min. All samples of the rat BP, CSF, and BT homogenate supernatant were stored at −80 °C until analysis.
The chromatographic analysis was conducted using a 1260 Infinity system (Agilent Technologies, Santa Clara, USA) equipped with a Kinetex® C18 column (50 × 4.6 mm, 2.6 μm, Phenomenex, Torrance, USA), which was maintained at 35 °C. The mobile phase consisted of 0.1% formic acid (v/v) in water with 5 mM ammonium formate (solvent A) and acetonitrile with 10% phase A (v/v, solvent B). The analyte and internal standard (IS, erlotinib) were eluted using a gradient run of 10 min as follows: 95% A at 0–2 min; 95%–5% A at 2–4 min; 5% A at 4–5 min; 5%–95% A at 5–6 min; 95% A at 6–10 min. The flow rate and injection volume were set at 0.7 mL/min and 10 μL, respectively. The needle was washed for 30 s in a mixture of acetonitrile, methanol, isopropanol, water, and formic acid (50:20:15:15:0.25, v/v/v/v/v).

[1] = brain tissue homogenate, oral, lapatinib 100 mg/kg + elacridar, read-out: BT corr (BT homogenate), S
[2] = brain tissue homogenate, oral, lapatinib 100 mg/kg + elacridar, read-out: BT corr (BT homogenate), single rat
[3] = brain tissue homogenate, po, 100 mg/kg, lapatinib p.o. 100 mg/kg alone, read-out: BT corr (BT homogenate corrected), S
[4] = brain tissue homogenate, po, 100 mg/kg, lapatinib p.o. 100 mg/kg alone, read-out: BT corr (BT homogenate corrected), single rat
[5] = brain tissue homogenate, po, 100 mg/kg, lapatinib p.o. 100 mg/kg alone, read-out: Clapatinib in BT, S (medium value)
[6] = brain tissue homogenate, po, 100 mg/kg, lapatinib p.o. 100 mg/kg alone, read-out: Clapatinib in BT, single rat
[7] = brain, oral, lapatinib 100 mg/kg + elacridar, read-out: BT corr (BT homogenate), single rat
[8] = brain, oral, lapatinib 100 mg/kg + elacridar, read-out: Clapatinib in BT, S
[9] = brain, oral, lapatinib 100 mg/kg + elacridar, read-out: Clapatinib in BT, single rat
[10] = brain, po, 100 mg/kg, lapatinib 100 mg/kg oral + 5 mg/kg elacridar (IE+L)
[11] = brain, po, 100 mg/kg, lapatinib 100 mg/kg oral alone (IIL)

Q: Which results are given for CS(=O)(=O)CCNCc1ccc(-c2ccc3ncnc(Nc4ccc(OCc5cccc(F)c5)c(Cl)c4)c3c2)o1 [lapatinib, N-{3-Chloro-4-[(3-fluorobenzyl)oxy]phenyl}-6-[5-({[2-(methylsulfonyl)ethyl]amino}methyl)-2-furyl]-4-quinazolinamine]?
A: concentration at 2 h [1]: 71.3 ng/mL; concentration at 3 h [1]: 198 ng/mL; concentration at 3 h [2]: 170 ng/mL; concentration at 4 h [1]: 85 ng/mL; concentration at 4 h [2]: 91.9 ng/mL; concentration at 6 h [1]: 85.8 ng/mL; concentration at 6 h [2]: 87.3 ng/mL; concentration at 8 h [1]: 85 ng/mL; concentration at 8 h [2]: 91.5 ng/mL; concentration at 12 h [1]: 54.4 ng/mL; concentration at 12 h [2]: 63.6 ng/mL; concentration at 24 h [1]: 44.7 ng/mL; concentration at 24 h [2]: 52.7 ng/mL; concentration at 0.25 h [3]: 27.9 ng/mL; concentration at 0.25 h [4]: 22.5 ng/mL; concentration at 0.25 h [5]: 34.3 ng/mL; concentration at 0.25 h [6]: 27.7 ng/mL; concentration at 0.5 h [3]: 31.5 ng/mL; concentration at 0.5 h [4]: 24 ng/mL; concentration at 0.5 h [5]: 44.9 ng/mL; concentration at 0.5 h [6]: 36.2 ng/mL; concentration at 1 h [3]: 55.5 ng/mL; concentration at 1 h [4]: 48.1 ng/mL; concentration at 1 h [5]: 76 ng/mL; concentration at 1 h [6]: 66.5 ng/mL; concentration at 2 h [3]: 41.4 ng/mL; concentration at 2 h [4]: 30.1 ng/mL; concentration at 2 h [5]: 63.7 ng/mL; concentration at 2 h [6]: 49.8 ng/mL; concentration at 3 h [3]: 111 ng/mL; concentration at 3 h [4]: 139 ng/mL; concentration at 3 h [5]: 134 ng/mL; concentration at 3 h [6]: 115 ng/mL; concentration at 4 h [3]: 115 ng/mL; concentration at 4 h [4]: 94.2 ng/mL; concentration at 4 h [5]: 147 ng/mL; concentration at 4 h [6]: 133 ng/mL; concentration at 6 h [3]: 81.9 ng/mL; concentration at 6 h [5]: 101 ng/mL; concentration at 6 h [6]: 131 ng/mL; concentration at 8 h [3]: 66.2 ng/mL; concentration at 8 h [4]: 87.5 ng/mL; concentration at 8 h [5]: 85.5 ng/mL; concentration at 8 h [6]: 108 ng/mL; concentration at 12 h [5]: 59.6 ng/mL; concentration at 0.25 h [7]: 30.7 ng/mL; concentration at 0.25 h [8]: 40.8 ng/mL; concentration at 0.25 h [9]: 37.6 ng/mL; concentration at 0.5 h [7]: 45.2 ng/mL; concentration at 0.5 h [8]: 58.8 ng/mL; concentration at 0.5 h [9]: 62 ng/mL; concentration at 1 h [8]: 98.6 ng/mL; concentration at 1 h [9]: 95.2 ng/mL; concentration at 2 h [8]: 102 ng/mL; concentration at 3 h [8]: 221 ng/mL; concentration at 3 h [9]: 198 ng/mL; concentration at 4 h [8]: 97.6 ng/mL; concentration at 4 h [9]: 107 ng/mL; concentration at 6 h [8]: 98.7 ng/mL; concentration at 6 h [9]: 100 ng/mL; concentration at 8 h [8]: 102 ng/mL; concentration at 8 h [9]: 98.5 ng/mL; concentration at 12 h [9]: 86.5 ng/mL; concentration at 24 h [8]: 56.9 ng/mL; concentration at 24 h [9]: 65.5 ng/mL; AUC(0-inf) [10]: 2520 ± 611 ng·h/mL; AUC(0-t) [10]: 1610 ± 131 ng·h/mL; Cmax [10]: 198 ± 39 ng/mL; Tmax [10]: 3 h; k el [10]: 1.39e-05 s⁻¹; AUC(0-inf) [11]: 1350 ± 712 ng·h/mL; AUC(0-t) [11]: 836 ± 21.2 ng·h/mL; Cmax [11]: 128 ± 16.4 ng/mL; Tmax [11]: 4.5 ± 2.12 h; k el [11]: 6.94e-05 s⁻¹; concentration at 12 h (brain, po, 100 mg/kg, lapatinib p.o. 100 mg/kg alone, read-out: BT corr (BT homogenate corrected), S): 44.5 ng/mL
